Data from patent US20240254083A1, “HETEROCYCLIC TRPML1 AGONISTS AND USES THEREOF” (Libra Therapeutics, Inc., priority 2021, published 2024).

Assays:
[1] = tested on: autophagy reporter Rosella stably expressed in HeK293 cell line; test: Autophagy assay (Rosella-LC3 reporter, imaging); format: cell-based; details: Homo sapiens; HeK293 cells with Rosella reporter (LC3 tag), 18 hours incubation, reference Torin-1; read-out: Autophagy pEC50 (converted)
Method: • Tyrode's buffer with 2 mM Ca^2+ in-house solution (130 mM NaCl, 5 mM KCl, 2 mM CaCl2), 1 mM MgCl2, 5 mM NaHCO3, 20 mM HEPES in water at pH 7.4; sterile filtered) • DMSO (Sigma) • Bis-benzimide H 33342 trihydrochloride (Hoechst 33342; Sigma-Aldrich) • Reference molecule (agonist): Torin-1, (#4247, Tocris) stock 1.2 mM in DMSO, stored at −20° C. Reporter of Autophagy and Cell line
Reporter Rosella: a fluorescent-based chimera constitutes by two fluorescent proteins, Green and Red variants, acting as a bimodal indicator of pH. The green fluorescent variant of the constructs is pH sensitive (pKa=6.9) while the red variant is not pH sensitive and it is used as reference. The reporter is fused to sequence for autophagosome localization (LC3 tag).
The reporter Rosella have been stably expressed in HeK293 cell line and used as read-out.
Experiments have been performed in 384 MTP poly-lysine coated well format. Cells have been seeded in 384-w at a density of 6000 cells/well in 25 μl/well complete growth medium without antibiotics. Twenty-four hours later, cells have been treated with compounds and incubated for further 18 hours. Then the cells have been imaged and assayed for the response to various compounds using the reporter for autophagy expressed in the cells as readout.
The experiments were performed in a 384-well format according to the following procedure: • 24 h after seeding, cells were incubated with compounds at the desired concentration, and with the reference molecule (agonist) Torin-1 at a top concentration of 1 μM (max signal), for 18 hours at 37° C. and 5% CO2. The final percentage of DMSO was 0.3% in all the conditions. • Then the culture medium was carefully removed to avoid cells detachment and to discard red phenol into the medium and that can interfere with the measurements. • Staining of the nuclei was obtained by incubating the cells with 8 μM/well of Hoechst 3342 in standard Tyrode's buffer for 20 min at RT • Then the cells were carefully washed two times with standard Tyrode's buffer • Finally, the samples were acquired by recording three fluorescence emission channels (green, red and blue) at 20× magnification and with at least 3-4 fields of view per well in an Operetta CLS microscope (PerkinElmer). • Image analysis was performed by using Harmony software (PerkinElmer). The image analysis involved the following steps: flat-field illumination correction, nuclei segmentation, cell segmentations and identification of vesicles/granules within the cytosol compartments and representing the autophagy vesicles. Measurements of signal intensity ratio (Green to Red) and number of autophagy vesicles per cells were used to obtain information on the effects of compounds on the autophagy flux. • Data from image analysis measurements were finally loaded and analyzed for normalization and fitting procedures in Genedata Screener© software.

hTRPML1 = molecular target: T1, hTRPML1 (Homo sapiens, UniProt Q9GZU1); test: Cellular TRPML1 assay (FLIPR, GCaMP6f calcium read-out); format: cell-based; details: HEK T-REx/GCaMP6f/TRPML1 cells, FLIPR TETRA, kinetic response over 300 seconds; read-out: hTRPML1 FLIPR pEC50 (converted)
T1 construct: expressed in transfected cells
T1 sequence (Q9GZU1 whole entry): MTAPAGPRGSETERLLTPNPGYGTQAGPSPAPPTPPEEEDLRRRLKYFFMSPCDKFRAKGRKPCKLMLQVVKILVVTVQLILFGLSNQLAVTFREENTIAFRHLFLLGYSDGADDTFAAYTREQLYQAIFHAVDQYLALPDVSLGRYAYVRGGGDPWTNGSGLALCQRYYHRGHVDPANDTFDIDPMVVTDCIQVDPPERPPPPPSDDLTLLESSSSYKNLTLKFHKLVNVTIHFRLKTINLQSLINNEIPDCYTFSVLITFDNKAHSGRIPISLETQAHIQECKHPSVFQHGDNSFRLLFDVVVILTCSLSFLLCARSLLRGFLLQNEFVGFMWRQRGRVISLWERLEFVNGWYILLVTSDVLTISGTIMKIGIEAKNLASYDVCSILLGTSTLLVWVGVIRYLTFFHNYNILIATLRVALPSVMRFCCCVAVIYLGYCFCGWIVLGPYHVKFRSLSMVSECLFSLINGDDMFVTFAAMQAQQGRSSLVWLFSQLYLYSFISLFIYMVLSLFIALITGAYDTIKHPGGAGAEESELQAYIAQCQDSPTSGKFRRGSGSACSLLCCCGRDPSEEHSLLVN
Method: Buffers and reagents • PBS (D-PBS without calcium and magnesium; EuroClone) • Trypsin (Trypsin 0.05%, EDTA 0.02% in PBS; EuroClone) • DMSO (Sigma) • Ca^2+ free Tyrode's buffer: in-house solution (130 mM NaCl, 5 mM KCl, 1 mM MgCl2, 5 mM NaHCO3, 20 mM HEPES in water at pH 7.4; sterile filtered). • Opti-MEM (Gibco) • Agonist: ML-SA1 (Sigma); stock: 60 mM in DMSO, stored at −20° C. • Blocker: ML-SI3 (in house synthesis); stock: 20 mM in DMSO, stored at −20° C.
Cell line • The final clone for the TRPML1 assay is HEK T-REx/GCaMP6f/TRPML1. • GCaMP6f is a genetically encoded calcium indicator that is stably expressed in this cell line and used as a fluorescent read-out.
Cells are seeded at 15000 cells/well either in 25 µl/well of growth medium or in 20 μl/well of Optimem+0.5% FBS without selection antibiotics. Twenty-four hours later, cells are assayed for the response to various compounds using the Ca^2+ sensitive GCaMP6f protein stably expressed in the cells as readout.
The experiment is performed in a 384-well format according to the following procedures for either Ca^2+ free or Optimem conditions: • Ca^2+ free condition (in absence of extracellular Ca^2+): • 24 h after seeding, pre-incubate the cells at room temperature for about 10′. • Then remove the culture medium and replace it with 20 μL of Ca^2+ free Tyrode's buffer. • Start the experiment at the FLIPR^TETRA by injecting 10 μL/w of 3× concentrated test compounds and controls in Ca^2+ free Tyrode's buffer. Monitor the kinetic response over a period of 300 seconds. • Final DMSO concentration: 0.5% • Optimem condition (in presence of extracellular Ca^2+): • 24 h after seeding, pre-incubate the cells at room temperature for about 10′. • Start the experiment at the FLIPR^TETRA by injecting 10 μL/w of 3× concentrated test compounds and controls in Ca^2+ free Tyrode's buffer. Monitor the kinetic response over a period of 300 seconds. • Final DMSO concentration: 0.5%
Data from FLIPR^TETRA measurements are analyzed with the Genedata Screener© software.

SMILES | EC50 [1] | EC50 (hTRPML1)
CC(C)(C)OC(=O)N1CCN(c2ccccc2NS(=O)(=O)c2ccc(C3CC3)cc2)CC1 [Example 23, tert-butyl 4-(2-((4-cyclopropylphenyl)sulfonamido)phenyl) piperazine-1-carboxylate] | > 3.16 µM | 1 to 3.16 µM
CN(C)S(=O)(=O)c1ccc(S(=O)(=O)Nc2ccccc2N2CCOC(C3CC3)C2)cc1 (stereo not drawn) [Example 31, N^1-(2-(2-cyclopropylmorpholino)phenyl)-N^4, N^4-dimethylbenzene-1,4-disulfonamide] | > 3.16 µM | > 3.16 µM
CN(C)S(=O)(=O)c1ccc(S(=O)(=O)Nc2ccccc2N2CCOC(C3CCC3)C2)cc1 (stereo not drawn) [Example 32, N^1-(2-(2-cyclobutylmorpholino)phenyl)-N^4,N^4-dimethylbenzene-1,4-disulfonamide] | 1 to 3.16 µM | > 3.16 µM
C#CCC1CN(c2ccccc2NS(=O)(=O)c2ccc(S(=O)(=O)N(C)C)cc2)CCO1 (stereo not drawn) [Example 33, N^1,N^1-dimethyl-N^4-(2-(2-(prop-2-yn-1-yl)morpholino)phenyl)benzene-1,4-disulfonamide] | < 1 µM | > 3.16 µM
CN(C)S(=O)(=O)c1ccc(S(=O)(=O)Nc2ccccc2N2CCC(C)(c3ccccc3)CC2)cc1 [Example 38, N^1,N^1-dimethyl-N^4-(2-(4-methyl-4-phenylpiperidin-1-yl)phenyl)benzene-1,4-disulfonamide] | < 1 µM | 1 to 3.16 µM
CN(C)S(=O)(=O)c1ccc(S(=O)(=O)Nc2ccccc2N2CCC(C)(Oc3ccccn3)CC2)cc1 [Example 40, N^1,N^1-dimethyl-N^4-(2-(4-methyl-4-(pyridin-2-yloxy)piperidin-1-yl)phenyl)benzene-1,4-disulfonamide] | < 1 µM | > 3.16 µM
